US8299301B2 (priority 2007, dated 2012)
Where two headings read alike, the source gives them in different places. One block for each compound: values may come before it.

Tests used:
[1] = pH 2.3
[2] = logP determination
[3] = tested on: Puccinia recondite; assay: Puccinia test (wheat) / protective; format: in vivo; settings: 240 h, read-out: efficacy
Method: Puccinia Test (Wheat)/Protective
(§1) To produce a suitable preparation of active compound, 1 part by weight of active compound is mixed with the stated amounts of solvent and emulsifier, and the concentrate is diluted with water to the desired concentration.
To test for protective activity, young plants are sprayed with the active compound preparation at the stated application rate. After the spray coating has dried on, the plants are sprayed with a conidia suspension of Puccinia recondite. The plants remain in an incubation cabin at 20° C. and 100% relative atmospheric humidity for 48 hours. The plants are then placed in a greenhouse at a temperature of about 20° C. and a relative atmospheric humidity of 80% to promote the development of rust pustules.
Evaluation is carried out 10 days after the inoculation. 0% means an efficacy which corresponds to that of the control, whereas an efficacy of 100% means that no infection is observed.

[4] = tested on: Erysiphe graminis f.sp. hordei; assay: Erysiphe test (barley) / protective; format: in vivo; settings: Blumeria graminis, 168 h, read-out: efficacy
Method: Erysiphe Test (Barley)/Protective
as §1
To test for protective activity, young plants are sprayed with the active compound preparation at the stated application rate. After the spray coating has dried on, the plants are dusted with spores of Erysiphe graminis f.sp. hordei. The plants are placed in a greenhouse at a temperature of about 20° C. and a relative atmospheric humidity of about 80% to promote the development of mildew pustules.
Evaluation is carried out 7 days after the inoculation. 0% means an efficacy which corresponds to that of the control, whereas an efficacy of 100% means that no infection is observed.

[5] = tested on: Sphaerotheca fuliginea; assay: Sphaerotheca test (cucumber) / protective; format: in vivo; settings: Podosphaera fuliginea, 168 h, read-out: efficacy
Method: Sphaerotheca Test (Cucumber)/Protective [table] To produce a suitable preparation of active compound, 1 part by weight of active compound is mixed with the stated amounts of solvent and emulsifier, and the concentrate is diluted with water to the desired concentration. To test for protective activity, young cucumber plants are sprayed with the active compound preparation at the stated application rate. 1 day after the treatment, the plants are inoculated with a spore suspension of Sphaerotheca fuliginea.

[6] = wheat, protective, active compound concentration 1000 ppm, evaluation 10 days after inoculation
[7] = barley, protective, active compound concentration 1000 ppm, evaluation 7 days after inoculation
[8] = cucumber, protective, active compound concentration 500 ppm, evaluation 7 days after inoculation

Compound: 4-(3-tertButylphenoxy)-5-trifluoromethyl-2-methylnitrobenzene
- log P (pH2.3) [1]: 5.68

Compound: Cc1cc(Oc2cccc(C(C)(C)C)c2)c(C(F)(F)F)cc1N [4-(3-tertButylphenoxy)-5-trifluoromethyl-2-methylaniline]
- logP ([2]; pH 2.3, log P (pH2.3), pH 2.3): 4.67

Compound: Cc1c([N+](=O)[O-])ccc(Cl)c1C(F)(F)F [4-Chloro-3-trifluoromethyl-2-methylnitrobenzene]
- log P (HCOOH) ([2]; HCOOH): 3.60

Compound: CCN(C)C=Nc1cc(CF)c(Oc2ccc(Cl)c(C(C)(C)C)c2)cc1C [Compound 1, N-ethyl-N-methyl-N′-[4-(3-tert-butyl-4-chlorophenoxy)-5-fluoromethyl-2-methylphenyl]formamidine]
- logP ([2]; logP acid, acid): 2.93
- pest or weed control at 1000 ppm [3, 6]: ≥ 70%
- pest or weed control at 1000 ppm [4, 7]: ≥ 70%

Compound: CCN(C)C=Nc1cc(CF)c(-c2ccc(C(C)(C)C)cc2)cc1C [Compound 2, N-ethyl-N-methyl-N′-[4-(4-tert-butylphenyl)-5-fluoromethyl-2-methylphenyl]formamidine]
- logP ([2]; logP acid, acid): 2.67
- pest or weed control at 1000 ppm [3, 6]: ≥ 70%
- pest or weed control at 1000 ppm [4, 7]: ≥ 70%

Compound: CCN(C)C=Nc1cc(C(F)(F)F)c(Oc2cccc(C(C)C)c2)cc1C [Compound 4, N-ethyl-N-methyl-N′-[4-(3-iso-propylphenoxy)-5-trifluoromethyl-2-methylphenyl]formamidine]
- pest or weed control at 500 ppm [5]: ≥ 70%
- logP ([2]; logP acid, acid): 2.65
- logP ([2]; logP neutral, neutral): 5.74
- pest or weed control at 1000 ppm [3]: ≥ 70%
- pest or weed control at 1000 ppm [4]: ≥ 70%

Compound: Cc1cc(Oc2ccc(Cl)c(C(F)(F)F)c2)c(C(F)(F)F)cc1N=CN1CCCCC1 [Compound 7, N-piperidinyl-N′-[4-(3-trifluoromethyl-4-chlorophenoxy)-5-trifluoromethyl-2-methylphenyl]formamidine]
- logP acid ([2]; acid): 2.98
- logP neutral ([2]; neutral): 6.19

Compound: CCN(C)C=Nc1cc(C(F)F)c(Oc2ccc(Cl)c(Cl)c2)cc1C [Compound 10, N-ethyl-N-methyl-N′-[4-(3,4-dichlorophenoxy)-5-difluoromethyl-2-methylphenyl]formamidine]
- pest or weed control at 500 ppm [5]: ≥ 70%
- logP ([2]; logP acid, acid): 2.31
- pest or weed control at 1000 ppm [3]: ≥ 70%
- pest or weed control at 1000 ppm [4]: ≥ 70%

Compound: CCN(C)C=Nc1cc(C(F)(F)F)c(-c2ccc(C(C)(C)C)cc2)cc1C [Compound 12]
- pest or weed control at 500 ppm [5]: ≥ 70%
- logP ([2]; logP acid, acid): 2.74
- logP ([2]; logP neutral, neutral): 6.15
- pest or weed control at 1000 ppm [3]: ≥ 70%
- pest or weed control at 1000 ppm [4]: ≥ 70%

Compound: CCN(C)C=Nc1cc(C(F)F)c(Oc2ccccc2)cc1C [Compound 13, N-ethyl-N-methyl-N′-[4-phenoxy-5-difluoromethyl-2-methylphenyl]formamidine]
- pest or weed control at 500 ppm [5]: ≥ 70%
- logP ([2]; logP acid, acid): 1.73

Compound: Cc1cc(Oc2cccc(C(C)C)c2)c(C(F)F)cc1N=CN1CCCCC1 [Compound 14, N-piperidinyl-N'-[4-(3-iso-propylphenoxy)-5-difluoromethyl-2-methylphenyl]formamidine]
- logP acid ([2]; acid): 2.60

Compound: CCN(C)C=Nc1cc(C(F)F)c(Oc2cccc(C(C)O)c2)cc1C (centres unmarked) [Compound 15, N-ethyl-N-methyl-N′-{4-[3-(1-hydroxyethyl)-phenoxy]-5-difluoromethyl-2-methylphenyl}formamidine]
- pest or weed control at 500 ppm [5]: ≥ 70%
- logP ([2]; logP acid, acid): 1.65

Now from value to compound, other results behind:

- logP ([2]; logP acid, acid): 3.26
- logP ([2]; logP neutral, neutral): 6.68
Compound: CCN(C)C=Nc1cc(C(F)(F)F)c(Oc2ccc(Cl)c(C(C)(C)C)c2)cc1C [Compound 3, N-ethyl-N-methyl-N′-[4-(3-tert-butyl-4-chlorophenoxy)-5-trifluoromethyl-2-methylphenyl]formamidine]
- pest or weed control at 500 ppm [5, 8]: ≥ 70%
- pest or weed control at 1000 ppm [3, 6]: ≥ 70%
- pest or weed control at 1000 ppm [4, 7]: ≥ 70%

- logP ([2]; logP acid, acid): 2.81
- logP ([2]; logP neutral, neutral): 5.77
Compound: CCN(C)C=Nc1cc(C(F)(F)F)c(Oc2ccc(Cl)c(C(F)(F)F)c2)cc1C [Compound 5, N-ethyl-N-methyl-N′-[4-(3-trifluoromethyl-4-chlorophenoxy)-5-trifluoromethyl-2-methylphenyl]formamidine]
- pest or weed control at 500 ppm [5, 8]: ≥ 70%

- logP ([2]; logP acid, acid): 3.01
- logP ([2]; logP neutral, neutral): 6.15
Compound: CCCN(C)C=Nc1cc(C(F)(F)F)c(Oc2ccc(Cl)c(C(F)(F)F)c2)cc1C [Compound 6, N-propyl-N-methyl-N′-[4-(3-trifluoromethyl-4-chlorophenoxy)-5-trifluoromethyl-2-methylphenyl]formamidine]
- pest or weed control at 500 ppm [5, 8]: ≥ 70%
- pest or weed control at 1000 ppm [3, 6]: ≥ 70%
- pest or weed control at 1000 ppm [4, 7]: ≥ 70%

- logP ([2]; logP acid, acid): 3.13
- logP ([2]; logP neutral, neutral): 6.3
Compound: Cc1cc(Oc2ccc(Cl)c(C(C)(C)C)c2)c(C(F)(F)F)cc1N=CN(C)C [Compound 8, N,N-dimethyl-N′-[4-(3-tert-butyl-4-chlorophenoxy)-5-trifluoromethyl-2-methylphenyl]formamidine]
- pest or weed control at 500 ppm [5, 8]: ≥ 70%
- pest or weed control at 1000 ppm [3, 6]: ≥ 70%
- pest or weed control at 1000 ppm [4, 7]: ≥ 70%

- logP ([2]; logP acid, acid): 2.82
Compound: CCN(C)C=Nc1cc(C(F)F)c(Oc2ccc(Cl)c(C(C)(C)C)c2)cc1C [Compound 9, N-ethyl-N-methyl-N′-[4-(3-tert-butyl-4-chlorophenoxy)-5-difluoromethyl-2-methylphenyl]formamidine]
- pest or weed control at 500 ppm [5, 8]: ≥ 70%
- pest or weed control at 1000 ppm [3, 6]: ≥ 70%
- pest or weed control at 1000 ppm [4, 7]: ≥ 70%

- logP ([2]; logP acid, acid): 2.52
- logP ([2]; logP neutral, neutral): 6.04
- logP ([2]; pH 2.3, log P (pH2.3), pH 2.3): 2.52
Compound: CCN(C)C=Nc1cc(C(F)(F)F)c(Oc2cccc(C(C)(C)C)c2)cc1C [Compound 11, N-ethyl-N-methyl-N′-[4-(3-tert-butylphenoxy)-5-trifluoromethyl-2-methylphenyl]formamidine]

- logP ([2]; logP acid, acid): 2.17
Compound: CCN(C)C=Nc1cc(C(F)F)c(Oc2cccc(C(C)F)c2)cc1C (centres unmarked) [Compound 16, N-ethyl-N-methyl-N′-{4-[3-(1-fluoroethyl)-phenoxy]-5-difluoromethyl-2-methylphenyl}formamidine]
- pest or weed control at 500 ppm [5, 8]: ≥ 70%

- logP ([2]; logP acid, acid): 2.97
Compound: CCN(C)C=Nc1cc(C(F)F)c(Oc2ccc(Cl)c(C(C)C)c2)cc1C [Compound 17, N-ethyl-N-methyl-N′-[4-(3-isopropyl-4-chlorophenoxy)-5-difluoromethyl-2-methylphenyl]formamidine]

- logP ([2]; logP acid, acid): 2.5
Compound: CCN(C)C=Nc1cc(C(F)F)c(Oc2cccc(C(C)C)c2)cc1C [Compound 18, N-ethyl-N-methyl-N′-[4-(3-iso-propylphenoxy)-5-difluoromethyl-2-methylphenyl]formamidine]
